# Measured values: US9340788B2 (priority 2007, dated 2016)
# Entries after “also recorded” stand apart in the source; their conditions may differ.
# Columns and labels:
# HCMV [1] = experiment: HCMV IE1 / viral gene expression, western blot of infected cells; type: cell-based, Human cytomegalovirus; settings: for HCMV IE1 gene expression: IMC-3G3 10 μg/ml 12 h or Gleevec 100 nM 1 h pre-treatment, western blot
# Description: (A) pp65 immunofluorescence after HCMV treatment (1 h, 4° C.) followed by shifting to 37° C. for indicated times. Rows represent (top to bottom): HEL, PDGFRα null fibroblasts, parental fibroblasts, null fibroblasts overexpressing hPDGFRα, HEL transfected with control, or PDGFRα siRNA. Nuclei were stained with DAPI. (B) Average±S.D. pp65 positive/100 cells counted in triplicate from (A). (C) Mock or HCMV infected cells were analyzed by western blotting with the indicated antibodies. Lanes 1-4 indicate HEL, 325S, PDGFRα null and PDGFRα null over-expressing hPDGFRα, respectively. (D) HEL transfected with control or PDGFRα siRNA were mock (lanes 1) or HCMV-treated (lanes 2) and subjected to western blots with indicated antibodies. (E) Western blot of HEL and U87 lysates after infection with mock (lanes 1), HCMV (lanes 2), or HCMV pretreated with IMC-3G3 (10 μg/ml, 12 h, lanes 3) or Gleevec (100 nM, 1 h, lanes 4). (F) PDGFRα siRNA treated cells infected with indicated HCMV strains and immunostained for IE1 12 hpi (primary infection). 6 dpi, supernatants were used to infect naïve HEL cells, followed by IE1 immunostaining and quantification (secondary infection). Average (n=6) values±S.D. are shown.
# HUVEC cells were pre-treated with IMC-3G3 (10 μg/ml, Imclone, 12 h), or Gleevec (100 nM, 1 h) prior to HCMV or mock infection. 12 hours post-infection, cell lysates were analyzed by western blot for the presence of IE1 gene product. […] The same blot was stripped and re-probed for actin (lower panel). Lane designation is 1—Mock, 2—HCMV, 3—IMC-3G3+HCMV, 4—Gleevec+HCMV.
# Upper panel: HEL cells pretreated with anti-human PDGFRα antibody (10 ng/ml, for 30 min, clone AF-307-NA from R&D; lanes 1 and 3) or with AG 1295 (lane 4, […], from Calbiochem) were stimulated with Towne HCMV (lanes 2 through 4) or Mock infected (lane 1) for 10 min at 37 C. Cells were washed and further incubated for 2 h at 37 C (to allow expression of IE1 gene product). Afterwards, cells were harvested in RIPA buffer and processed for western blotting as described.
# Western Blot, Immunoprecipitation, and Immunofluorescence analyses. For stimulation experiments, cells were serum-starved for 24 h, followed by stimulation with HCMV (MOI of 0.5), PDGF-AA (5-10 ng/ml, from R&D Systems), or mock, for 10 minutes. In some cases, cells were pre-treated with IMC-3G3 (ImClone Inc.) at 10 µg/ml (2 or 12 h) or Gleevec® (100 nM, 1 h) prior to HCMV exposure. Cell lysates were analyzed by SDS-PAGE. Antibodies used were as follows: polyclonal anti-PDGFRα ( 1/500), phosphor-Tyrosine clone 4G10 ( 1/1000), and monoclonal anti-p85 PI3-K ( 1/1000), (Upstate Biotechnology), anti HCMV IE1 MAB810 (Chemicon; 1/1000), anti HCMV pp65 (Novocastra, 1/1000), anti-phosphor-PDGFRα ( 1/500, pTyr 754), anti-phosphor-Akt (Ser 473, 1/1000) and total Akt ( 1/1000; all from Cell Signaling). Anti-actin polyclonal control antibody was used ( 1/500, Sigma). Immunoprecipitations were performed using protein G (Pierce) according to manufacturer's instructions. For immunofluorescence, monoclonal HCMV pp65 and phosphor-PDGFRα (p-Tyr 754, Santa Cruz Biotechnology) were used, overnight at 4° C., followed by 1 hour incubation with secondary antibodies conjugated to Alexa-488, or Alexa 568 ( 1/5,000, Molecular Probes). Nuclei were counterstained with DAPI. Co-immunoprecipitation experiments were performed using full length soluble purified recombinant gB (gB 680, from Don Diamond, City of Hope, Calif.) and detergent soluble extract of HEL cells generated in lysis buffer (1% NP-40, 75 mM NaCl and 50 mM Tris-HCl). 500 μg of protein from total cell extract was incubated with 25 μg of gB 680 in lysis buffer in the presence of an anti-gB (Virusys, Inc) or anti-PDGFRα (R&D) antibody overnight at 4° C. Immune complexes were recovered with protein A-Sepharose beads (2 hr incubation), denatured and separated on SDS-PAGE for western blot with anti-gB (Virusys, Inc) or anti-PDGFRα (Cell Signaling Technology) antibodies.
# HCMV [2] = experiment: Viral attachment and internalization assay (pp65 immunofluorescence); type: cell-based, Human cytomegalovirus
# Description: (A) HEL cells were pretreated with PBS (20 min 4° C.), IMC-3G3 (2 h, 37° C., 10 μg/ml), or PDGF-AA (20 min, 4° C., 10 ng/ml) prior to infection with HCMV (MOI of 1, 4° C., 1 h). Cells were returned to 37° C. for 30 minutes, and processed for pp65^HCMV and PDGFRα double immunofluorescence. […] All conditions were assayed in triplicate cultures. One hundred cells in 4 low magnification fields were counted. Bars represent SD.
# Viral Attachment and Internalization Assays. Mouse fibroblasts and HEL cells (72 hours following siRNA transfections) were incubated with HCMV (MOI of 0.5) or mock treated for 1 hour at 4° C., after which cells were returned to 37° C. for 15, 30, or 60 min. Cells were fixed using methanol (20 min) and processed for pp65 immunofluorescence. Four low power fields were counted for each condition and pp65 positive were recorded for each 100 cells. Internalization assays were repeated twice.
# PI3-K/Akt signaling = type: cell-based, human
# Description: (A) HEL cells stimulated with HCMV or PDGF-AA were subjected to immunoprecipitation and western blot analyses with indicated antibodies. (B) Phospho-PDGFRα ELISA of cells+/−pretreatment with IMC-3G3 (10 μg/ml, 2 h) followed by HCMV (MOI=1) or PDGF (10 ng/ml) for 10 min. Mean values (n=6)±S.D are shown. (C) Western blot of HEL mock, HCMV, or PDGF-AA stimulated (10 min), +/−IMC-3G3 (2 μg/ml) or Gleevec® (Imatinib) (100 nM). The same membrane was used for p-Akt^Ser 473 and Akt.
# HEL cells pretreated with blocking reagents (as indicated; 30 min, 37 C) were stimulated for 10 min with HCMV, PDGF-AA (5 ng/ml), or mock-treated. Cell lysates were collected in RIPA buffer (supplemented with protease and phosphatase inhibitors) and subjected to Western blot analysis.
# For stimulation experiments, cells were serum-starved for 24 h, followed by stimulation with HCMV (MOI of 0.5), PDGF-AA (5-10 ng/ml, from R&D Systems), or mock, for 10 minutes. In some cases, cells were pre-treated with IMC-3G3 (ImClone Inc.) at 10 g/ml (2 or 12 h) or Gleevec® (100 nM, 1 h) prior to HCMV exposure. Cell lysates were analyzed by SDS-PAGE. Antibodies used were as follows: polyclonal anti-PDGFRα ( 1/500), phosphor-Tyrosine clone 4G10 ( 1/1000), and monoclonal anti-p85 PI3-K ( 1/1000), (Upstate Biotechnology), anti HCMV IE1 MAB810 (Chemicon; 1/1000), anti HCMV pp65 (Novocastra, 1/1000), anti-phosphor-PDGFRα ( 1/500, pTyr 754), anti-phosphor-Akt (Ser 473, 1/1000) and total Akt ( 1/1000; all from Cell Signaling). Anti-actin polyclonal control antibody was used ( 1/500, Sigma). Immunoprecipitations were performed using protein G (Pierce) according to manufacturer's instructions.
# HCMV [3] = experiment: HCMV pp65 western blot in HEL cells; type: cell-based, Human cytomegalovirus; settings: antibody 10 ng/ml 30 min or AG 1295 20 pM, Towne HCMV 10 min at 37 C
# Description: HEL cells were transfected with siRNA against the PI3K p110α catalytic subunit (a mixture of 4 RNAi oligos, “smart pool” from Dharmacon) or non-targeting, control siRNA (Dharmacon) for 48 h prior to infection with HCMV (MOI of 1) for 1 hour. Cells were washed and cultured for 2 h-6 days. a. […] The mean number of IE1 positive cells is reduced by ˜50% in the PI3 Kp110α knockdown cultures—panel c**, p<0.01. PI3K p110α knock down is also significant (b, left panels, red fluorescence). However, unlike cells that lack a functional PDGFRα, PI3K p110α knock down cells are capable of producing infectious virus as shown by IE1 staining of the secondary infected cultures (panel d). A 10% decrease in infectious virus production in the cells treated with p110α siRNA is insignificant*, bars represent SD, […], panel c. Experiments were repeated twice, all conditions were assayed in triplicate. Similar results were obtained with both Towne-infected cultures (illustrated in this figure) and CMV-GFP.
# Upper panel: HEL cells pretreated with anti-human PDGFRα antibody (10 ng/ml, for 30 min, clone AF-307-NA from R&D; lanes 1 and 4) or with AG 1295 (lane 3, […], from Calbiochem) were stimulated with Towne HCMV (lanes 2-4) or Mock infected (lane 1) for 10 min at 37 C. […]
# Western Blot, Immunoprecipitation, and Immunofluorescence analyses. […] Cell lysates were analyzed by SDS-PAGE. […]
# HCMV [4] = experiment: IE1 immunofluorescence of HCMV infected HEL cells; type: cell-based, Human cytomegalovirus; settings: HEL; antibody 1 h or AG1295 15 min before HCMV; 1 h at 37 C plus additional 6 h
# Description: HEL cells were transfected with PDGFRα siRNA (smart pool, Dharmacon) or non-targeting control siRNA (Dharmacon) for 48-60 hours when maximum protein knockdown is achieved (panels a and b. Also see FIG. 3d). Cells were then infected with Towne, AD169, TR, or CMV-GFP strains of HCMV for 1 hour, washed and returned to 37° C. in complete growth media. Supernatants obtained from these cultures were used in subsequent assays measuring production of infectious virus as described below. […] Cultures infected with supernatants from GFP-CMV treated cells were monitored daily under the fluorescence microscope. Over 40% of the control siRNA treated cells expressed CMV-GFP 1 day post infection (c, 1 dpi) and this number increased to 100% by day 6 (c, 6 dpi). Note the appearance of “plaques”-like groups of cells in control siRNA transfected cells (c, 3 and 6 dpi). […]
# Measurements of Infectious Virus Production. […] A duplicate set of cultures was analyzed by immunofluorescence at 12 hours post infection (hpi) to assess percent of IE1 positive cells, as a measure of “primary infection”. […] 12 hpi cells were stained for IE1 and IE1 positive cells were counted amongst a total of 100 cells/low magnification microscopic field, 4 fields/condition. […] Where indicated, CMV-GFP infected cells were monitored daily under fluorescence microscope. […]
# [5] = human epithelial, endothelial, and fibroblast cells
molecule,measurement,setting,value
"Cc1ccc(NC(=O)c2ccc(CN3CCN(C)CC3)cc2)cc1Nc1nccc(-c2cccnc2)n1 [Gleevec, 4-[(4-methylpiperazin-1-yl)methyl]-N-[4-methyl-3-[(4-pyridin-3-ylpyrimidin-2-yl)amino]-phenyl]-benzamide, reference compound]",HCMV IE1 gene expression,HCMV [1]; HEL cells,completely inhibited
same,HCMV IE1 expression,"HCMV [1]; HUVEC, pre-treated with IMC-3G3 10 μg/ml 12 h or Gleevec 100 nM 1 h, western blot 12 hours post-infection",completely inhibited
same,HCMV IE1 gene expression,HCMV [1]; U87 glioma cells,completely inhibited
same,HCMV gene expression,HCMV [1]; [5],completely inhibited
same,HCMV viral internalization,HCMV [2]; [5],completely inhibited
same,Akt phosphorylation induced by either HCMV or PDGF-AA,"PI3-K/Akt signaling; HEL, 10 min stimulation, IMC-3G3 2 μg/ml or Gleevec 100 nM, p-Akt Ser 473",abolished
"Cc1cc2ncc(-c3ccccc3)nc2cc1C [AG1295, reference compound]",amount of pp65 (anti-pp65 blot),HCMV [3],decrease
same,IE1 levels,HCMV [4],significant decrease
same,p-Akt levels induced by either PDGF or HCMV,"PI3-K/Akt signaling; HEL pretreated with blocking reagents 30 min, 37 C, stimulated 10 min with HCMV or PDGF-AA 5 ng/ml",decreased
"PDGF-AA: the authentic (genuine) PDGFRα ligand, from R&D Systems [reference compound]",HCMV entry,"HCMV [2]; HEL cells harboring endogenous PDGFRα, pretreatment with PDGF-AA",significantly decreased; also recorded: competitively inhibited
same,inhibition of HCMV entry (pp65 positive cells),"HCMV [2]; HEL cells, IMC-3G3 2 h, 37° C., 10 μg/ml, PDGF-AA 20 min, 4° C., 10 ng/ml, HCMV MOI of 1, 30 min at 37° C.",~30%
